In PubChem BioAssay (NCI):
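Method: 48-hour compound exposure of cells in 96-well plates, five concentrations, linear interpolation of endpoints. Definition used: TGI = concentration required for complete inhibition of growth.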

Assays:
Experiment in all cases: DTP human tumour cell line panel, 48 h
786-0 renal = test system: 786-0 renal
CCRF-CEM leukemia = test system: CCRF-CEM leukemia
HS 578T breast = test system: HS 578T breast
K-562 leukemia = test system: K-562 leukemia
KM12 colon = test system: KM12 colon
MALME-3M melanoma = test system: MALME-3M melanoma
MDA-MB-435 = test system: MDA-MB-435
NCI-H23 lung = test system: NCI-H23 lung
OVCAR-3 ovarian = test system: OVCAR-3 ovarian
OVCAR-8 ovarian = test system: OVCAR-8 ovarian
SF-539 CNS = test system: SF-539 CNS
TK-10 renal = test system: TK-10 renal
UACC-62 melanoma = test system: UACC-62 melanoma
UO-31 renal = test system: UO-31 renal
NCI-H522 lung = test system: NCI-H522 lung
RPMI-8226 leukemia = test system: RPMI-8226 leukemia
UACC-257 melanoma = test system: UACC-257 melanoma

Row | SMILES | TGI (786-0 renal) | TGI (CCRF-CEM leukemia) | TGI (HS 578T breast) | TGI (K-562 leukemia) | TGI (KM12 colon) | TGI (MALME-3M melanoma) | TGI (MDA-MB-435) | TGI (NCI-H23 lung) | TGI (OVCAR-3 ovarian) | TGI (OVCAR-8 ovarian) | TGI (SF-539 CNS) | TGI (TK-10 renal) | TGI (UACC-62 melanoma) | TGI (UO-31 renal) | TGI (NCI-H522 lung) | TGI (RPMI-8226 leukemia) | TGI (UACC-257 melanoma)
1 | COc1ccc(C[n+]2cccc(O)c2)cc1 | > 100 µM | > 100 µM | > 100 µM | > 100 µM | > 100 µM | > 100 µM | > 100 µM | > 100 µM | > 100 µM | > 100 µM | > 100 µM | > 100 µM | > 100 µM | > 100 µM | – | – | –
2 | C=C1C2C[C@@H]3O[C@H]4C[C@H]5O[C@@]6(C[C@@H]7O[C@]8(C[C@H](C)[C@@H]9O[C@@H]%10CC(C=O)O[C@@H]%10C[C@@H]9O8)C[C@H](C)[C@@H]7O6)C[C@H]5O[C@H]4[C@H](C)[C@H]3OC(=O)C[C@H]3CC[C@@H]4OC5[C@H]6O[C@]7(CC[C@H]8CC(=C)[C@H](CC[C@@H](C[C@H]1C)O2)O8)CC6O[C@@H]5[C@@H](O7)[C@H]4O3 (some centres undefined) | 0.971 µM | – | < 0.0001 µM | > 1 µM | – | – | < 0.0001 µM | 0.00195 µM | > 1 µM | – | – | > 1 µM | > 1 µM | > 1 µM | < 0.0001 µM | 0.000326 µM | –
3 | CCCCCCc1cc2cc(C(=O)NCc3ccccc3)c(=N)oc2cc1O | > 100 µM | > 100 µM | > 100 µM | > 100 µM | > 100 µM | > 100 µM | > 100 µM | > 100 µM | > 100 µM | > 100 µM | > 100 µM | – | > 100 µM | – | > 100 µM | > 100 µM | > 100 µM
4 | Cc1c2oc3c(C)cnc(C(=O)NC4C(=O)NC(C(C)C)C(=O)N5CCCC5C(=O)N(C)CC(=O)N(C)C(C(C)C)C(=O)OC4C)c3nc-2c(C(=O)NC2C(=O)NC(C(C)C)C(=O)N3CCCC3C(=O)N(C)CC(=O)N(C)C(C(C)C)C(=O)OC2C)c(N)c1=O (centres undefined) | > 75 µM | 5.44 µM | 19.5 µM | 2.36 µM | 61.1 µM | 16.6 µM | 16.7 µM | > 54.8 µM | > 58.2 µM | > 44.5 µM | 17.7 µM | > 75 µM | 12.4 µM | 51 µM | 18 µM | – | 33.8 µM
5 | Cc1n[nH]c(=O)n1Nc1ccccc1 | > 100 µM | > 100 µM | > 100 µM | > 100 µM | > 100 µM | > 100 µM | > 100 µM | > 100 µM | > 100 µM | > 100 µM | > 100 µM | – | > 100 µM | > 100 µM | > 100 µM | > 100 µM | > 100 µM
6 | COc1ccc(C(=O)N2CCN(c3ccc4c(c3)OCC(=O)N4)CC2)cc1OC | > 100 µM | > 100 µM | > 100 µM | – | > 100 µM | > 100 µM | > 100 µM | > 100 µM | > 100 µM | > 100 µM | > 100 µM | > 100 µM | > 100 µM | > 100 µM | > 100 µM | > 100 µM | > 100 µM
7 | Cc1ccc(N=NN(C)C(C)C(O)Cc2ccccc2)cc1 (centres undefined) | > 100 µM | > 100 µM | > 100 µM | > 100 µM | > 100 µM | > 100 µM | > 100 µM | > 100 µM | > 100 µM | > 100 µM | – | > 100 µM | > 100 µM | > 100 µM | – | > 100 µM | > 100 µM
8 | CCOC(=O)c1cc(-c2ccc([N+](=O)[O-])cc2)c([N+](=O)[O-])[nH]1 | > 10 µM | > 10 µM | > 10 µM | > 10 µM | > 10 µM | > 10 µM | 9.3 µM | 8.01 µM | > 10 µM | > 10 µM | > 10 µM | > 10 µM | > 10 µM | 9.69 µM | > 10 µM | – | 5.68 µM
9 | O=S(=O)(O)c1ccc(Nc2ccnc3ccccc23)cc1 | > 100 µM | > 100 µM | > 100 µM | > 100 µM | > 100 µM | > 100 µM | > 100 µM | > 100 µM | – | > 100 µM | > 100 µM | > 100 µM | > 100 µM | > 100 µM | > 100 µM | > 100 µM | > 100 µM
10 | O=c1sc(Nc2ccc3ccccc3c2Cl)nc2ccccc12 | > 100 µM | > 100 µM | > 100 µM | > 100 µM | > 100 µM | > 100 µM | > 100 µM | > 100 µM | > 100 µM | – | > 100 µM | > 100 µM | > 100 µM | > 100 µM | > 100 µM | > 100 µM | > 100 µM
11 | O=C(O)C1CC(C2CCCCN2)CN2CCCCC12 (centres undefined) | > 100 µM | > 100 µM | > 100 µM | > 100 µM | > 100 µM | > 100 µM | > 100 µM | > 100 µM | > 100 µM | > 100 µM | > 100 µM | > 100 µM | > 100 µM | > 100 µM | – | > 100 µM | > 100 µM
12 | NC1=NCC(CN2CCCCC2)O1 (centres undefined) | > 100 µM | > 100 µM | > 100 µM | > 100 µM | > 100 µM | > 100 µM | > 100 µM | – | > 100 µM | > 100 µM | > 100 µM | > 100 µM | > 100 µM | > 100 µM | > 100 µM | > 100 µM | > 100 µM
13 | O=C1NC(=S)N/C1=C\c1ccc(Cl)cc1 | > 100 µM | > 100 µM | > 100 µM | – | > 100 µM | > 100 µM | > 100 µM | > 100 µM | > 100 µM | > 100 µM | > 100 µM | > 100 µM | > 100 µM | > 100 µM | > 100 µM | > 100 µM | –
14 | O=C1CNc2cc(N3CCOCC3)ccc2N1 | > 100 µM | > 100 µM | > 100 µM | > 100 µM | > 100 µM | > 100 µM | > 100 µM | > 100 µM | > 100 µM | > 100 µM | – | > 100 µM | > 100 µM | > 100 µM | > 100 µM | > 100 µM | > 100 µM
